“Also recorded” adds a separate entry of the source. Read-outs that look alike come from different tables or passages of the source.
Assays:
[1] = molecular target: T1, SERCA1a (Oryctolagus cuniculus, UniProt P04191); assay: SERCA1a ATPase activity, NADH-coupled enzyme assay in sarcoplasmic reticulum vesicles; format: biochemical, rabbit; settings: for Effect on SERCA1a activity in the presence of MGX: 3 mM MGX; for IC50: read-out: IC50, reduction in SERCA1a activity; for Effect on SERCA1a activity in the presence of PAL: 0.65 mM PAL; for PAL SERCA1a Activity: in the presence of PAL; for Effect on SERCA1a activity: 2 min; for Concentration from which the SERCA1a activating effect starts: concentration-dependent activation;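 for all read-outs here: rabbit fast-twitch skeletal muscle SR vesicles with Ca2+ ionophore A23187, ATP hydrolysis rate followed as NADH absorbance loss at 340 nm, 37 °C, started by 10 µM CaCl2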
T1 construct: Sarcoplasmic reticulum (SR) vesicles were isolated from the fast-twitch skeletal muscle; from tissue; host or cells: rabbit fast-twitch skeletal muscle, sarcoplasmic reticulum vesicles

[2] = system: INS-1E beta cells; assay: Insulin release from INS-1E beta cells (RIA); format: cell-based; settings: for Insulin Secretion Non-Stimulated / Insulin release from non-stimulated cells: 3 mM glucose; for Insulin Secretion Stimulated / Insulin release from Glu-stimulated cells: 16.7 mM glucose; for Insulin release from non-stimulated cells / Insulin release from Glu-stimulated cells: 50 µM, except CUR and THCU 10 µM, 24 h
Experimental: (§1) The INS-1E insulinoma pancreatic beta cell line (kindly provided by Prof. Claes Wollheim, University of Geneva) was cultured in RPMI 1640 (11 mM glucose, Sigma, St. Louis, MO, USA). The RPMI 1640 was supplemented with 100 U/mL penicillin, 100 μg/mL streptomycin, 2 mM L-glutamine, 1 mM Na pyruvate, 55 μM 2-mercaptoethanol, 10 mM HEPES, 1% nonessential amino acids, and 10% fetal bovine serum (pH 7.0–7.4). Cells were cultivated in a humidified incubator containing 5% CO2 at 37 °C. All experiments were conducted using cells from passages 40 to 70. The cells were pre-treated with various concentrations of individual compounds (5–200 μM) for 24 h with or without MGX (2.5 mM) and PAL (0.4 mM). Subsequent measurements were then performed using a cytotoxicity MTT assay and an insulin release assay.
Insulin release in response to glucose was measured in INS-1E beta cells ([…]). Briefly, after 24 h preincubation with individual compounds, beta cells were washed with a glucose-free KRBH buffer. Subsequently, cells were incubated at 37 °C for 30 min in a glucose-free KRBH buffer, followed by another 30 min incubation at 37 °C in a KRBH buffer containing either 3 mM glucose (non-stimulating concentration) or 16.7 mM glucose (insulin-stimulating concentration). The supernatants were then collected and analyzed using an RIA kit (Mercodia, Uppsala, Sweden) for insulin release, with rat insulin as the standard.

[3] = system: INS-1E beta cells; assay: MTT viability assay in INS-1E beta cells; format: cell-based; settings: for Effect on INS-1E viability in the presence of MGX: 2.5 mM MGX; for PAL INS-1E Viability: in the presence of PAL; for IC50: MTT, read-out: IC50, INS-1E cell viability; for Concentrations protecting against MGX-induced beta cell viability decrease: MGX 2.5 mM
Experimental: as §1, with “The cells were pre-treated with various concentrations of individual compounds (5–200 μM) for 24 h with or without MGX (2.5 mM) and PAL (0.4 mM).” left out
The MTT (Sigma, St. Louis, MO, USA) reduction assay was used as an indicator of cell damage and was conducted following a standard protocol. INS-1E cells (5 × 10^4 cells per well) were seeded into 96-microwell plates. The cells were preincubated for different periods with or without various concentrations of individual compounds for 24 h (5% CO2 at 37 °C). MTT was introduced to achieve a final concentration of 0.5 mg/mL in an RPMI 1640 medium. Following a 4 h incubation, the MTT medium was removed. The addition of DMSO (100 µL) was added and left to stand for 15 min to solubilize the formazan formed. The absorbance was recorded at 570 nm using a microplate reader (Infinite M200, Tecan, Switzerland).

[4] = system: SERCA2 isoform; parameters: method as in Kang et al. [43] and Nguyen et al. [44]; settings: ref Kang et al. [43] and Nguyen et al. [44]; cited from earlier work
[5] = SR vesicles, no stressor, read-out: EC50, SERCA1a activation

T1 sequence (P04191 1-994 isoform P04191-2): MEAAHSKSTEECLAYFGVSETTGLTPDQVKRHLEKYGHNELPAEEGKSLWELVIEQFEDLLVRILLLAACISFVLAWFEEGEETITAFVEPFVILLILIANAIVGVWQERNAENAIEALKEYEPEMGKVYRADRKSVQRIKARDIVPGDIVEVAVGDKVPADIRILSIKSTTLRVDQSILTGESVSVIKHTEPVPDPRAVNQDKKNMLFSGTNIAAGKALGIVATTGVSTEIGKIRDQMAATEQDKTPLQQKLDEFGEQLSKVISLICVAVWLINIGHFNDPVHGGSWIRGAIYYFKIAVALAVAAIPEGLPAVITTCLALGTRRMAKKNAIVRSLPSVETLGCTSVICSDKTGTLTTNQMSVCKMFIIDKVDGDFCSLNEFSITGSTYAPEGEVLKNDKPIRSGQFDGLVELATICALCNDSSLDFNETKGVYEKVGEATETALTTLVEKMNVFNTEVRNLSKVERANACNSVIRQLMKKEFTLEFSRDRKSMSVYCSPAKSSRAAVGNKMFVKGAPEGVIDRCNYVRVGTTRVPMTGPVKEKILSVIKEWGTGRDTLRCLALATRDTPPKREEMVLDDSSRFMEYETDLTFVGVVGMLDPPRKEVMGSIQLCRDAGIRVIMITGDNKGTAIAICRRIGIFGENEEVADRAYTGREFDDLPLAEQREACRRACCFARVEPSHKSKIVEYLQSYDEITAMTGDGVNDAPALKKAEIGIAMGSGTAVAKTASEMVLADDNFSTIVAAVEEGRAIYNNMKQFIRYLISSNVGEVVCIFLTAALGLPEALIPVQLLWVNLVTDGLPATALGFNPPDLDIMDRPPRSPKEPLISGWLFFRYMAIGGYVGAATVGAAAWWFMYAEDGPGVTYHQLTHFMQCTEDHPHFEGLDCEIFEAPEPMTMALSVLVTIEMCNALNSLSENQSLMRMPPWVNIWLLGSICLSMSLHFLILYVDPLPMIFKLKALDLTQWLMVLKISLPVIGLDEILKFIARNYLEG

In the case of `Oc1ccc(/C=C/c2cc(O)cc(O)c2)cc1` [RES, Resveratrol], the “Effect on SERCA1a activity in the presence of MGX” value ([1]; 5–200 μM) is reported as “potent concentration-dependent protective effect”, the EC50 ([1]; in the presence of MGX (3 mM), read-out: EC50, protection of SERCA1 activity against MGX) is reported as 112 µM and the “Insulin Secretion Non-Stimulated” value [2] is reported as “-”. The “Insulin Secretion Stimulated” value [2] was “-”, the “Effect on INS-1E viability in the presence of PAL” value ([3]; 0.4 mM PAL, 5–200 μM) was “did not prevent the decrease” and the “Effect on INS-1E viability in the presence of MGX” value ([3]; 5–200 μM, 24 h) was “no effect; also recorded: did not prevent the decrease”. The “MGX INS-1E Viability” value ([3]; in the presence of MGX) was “-” and the “PAL INS-1E Viability” value [3] was “-”.

In the case of `CC(=O)C=O` [MGX, methylglyoxal], the IC50 ([1]; SR vesicles) is reported as 2.98 mM and the IC50 [3] is reported as 2.54 mM.

For Curcumin, the “Effect on SERCA1a activity in the presence of PAL” value ([1]; 5–200 μM) was “additional decrease in SERCA1a activity”, the “Effect on SERCA1a activity in the presence of MGX” value ([1]; 10 µM) was “prevented MGX-mediated decline” and the “Effect on SERCA1a activity in the presence of MGX” value ([1]; 20–50 µM) was “further decreased SERCA1a activity”. The “Insulin release from non-stimulated cells” value [2] was “significant increase in insulin release”, the “Insulin release from Glu-stimulated cells” value [2] was “significant increase in insulin release” and the “Effect on INS-1E viability in the presence of PAL” value ([3]; 0.4 mM PAL, 5–200 μM) was “protection”. The “Effect on INS-1E viability in the presence of MGX” value ([3]; 5 and 10 µM) was “protective effect” and the “Concentrations protecting against MGX-induced beta cell viability decrease” value [3] was < 20 µM.

In the case of `O=c1c(O)c(-c2cc(O)c(O)c(O)c2)oc2cc(O)cc(O)c12` [MYR, Myricetin], the “SERCA1a Activity” value ([1]; control conditions) is reported as “-”, the “PAL SERCA1a Activity” value [1] is reported as “-” and the “Effect on INS-1E viability in the presence of PAL” value ([3]; 0.4 mM PAL, 5–200 μM) is reported as “highest degree of protection”. For the same compound, the “INS-1E viability restored, % of the control cell value” ([3]; 0.4 mM PAL, 10 and 50 µM) was “approximately 80%”.

`CCCCCCCCCCCCCCCC(=O)O` [PAL, palmitate] gave an IC50 ([1]; SR vesicles) of 0.65 mM and an IC50 ([3]; INS-1E) of 0.41 mM.

With `CCCCC[C@H](O)CC(=O)CCc1ccc(O)c(OC)c1` [GIN, [6]-Gingerol] the “Effect on SERCA1a activity in the presence of PAL” value ([1]; 5–200 μM) was “protective effect”, the “Effect on SERCA1a activity in the presence of PAL” value ([1]; 50 and 100 μM) was “protected against the decrease in SERCA1 activity” and the “Effect on SERCA1a activity in the presence of MGX” value ([1]; 5–200 μM) was “potent concentration-dependent protective effect”. For the same compound, the “Effect on SERCA1a activity in the presence of MGX” value ([1]; 100–200 μM) was “protected against the decrease in SERCA1 activity”, the “Effect on SERCA1a activity” value ([1]; 5–200 μM) was “increase SERCA1a activity” and the EC50 [1, 5] was 36.9 µM. For the same compound, the “Concentration from which the SERCA1a activating effect starts” value [1] was ≥ 30 µM, the “Insulin release from non-stimulated cells” value [2] was “did not induce an increase” and the “Insulin release from Glu-stimulated cells” value [2] was “slight increase”. The “Insulin Secretion Non-Stimulated” value [2] was “-”.

In the case of `O=c1oc2c(O)c(O)cc3c(=O)oc4c(O)c(O)cc1c4c23` [EA, Ellagic acid], the “Increase in SERCA1a activity” value ([1]; 50 μM) is reported as “approximately 150%”, the “Effect on SERCA1a activity in the presence of PAL” value ([1]; 50 µM) is reported as “alleviated PAL-induced injury almost to control values” and the “Effect on SERCA1a activity in the presence of PAL” value ([1]; 5–200 μM) is reported as “most profound protective effect”. The “Effect on SERCA1a activity in the presence of MGX” value ([1]; 5–200 μM) was “potent concentration-dependent protective effect”, the “Effect on SERCA1a activity” value ([1]; 5–200 μM) was “increase SERCA1a activity” and the EC50 [1, 5] was 33.2 µM. The “Concentration from which the SERCA1a activating effect starts” value [1] was ≥ 30 µM, the “Insulin release from non-stimulated cells” value [2] was “significant increase in insulin release” and the “Insulin release from Glu-stimulated cells” value [2] was “significant increase in insulin release”. For the same compound, the “Effect on INS-1E viability in the presence of PAL” value ([3]; 0.4 mM PAL, 5–200 μM) was “protection”.

For `Oc1cc(O)cc(/C=C/c2ccc(O)cc2O)c1` [ORES, Oxyresveratrol], the “Effect on SERCA1a activity in the presence of MGX” value ([1]; 5–200 μM) was “further decreased SERCA1a activity”, the “PAL SERCA1a Activity” value [1] was “-” and the “Insulin Secretion Non-Stimulated” value [2] was “-”. The “PAL INS-1E Viability” value [3] was “-”.

With `Oc1cc(O)c2cc(O)c(-c3ccc(O)c(O)c3)[o+]c2c1` [CYA, Cyanidin chloride] the “Effect on SERCA1a activity” value ([1]; 5–200 μM) was “increase SERCA1a activity”.

With `COc1cc(CCC(=O)CC(=O)CCc2ccc(O)c(OC)c2)ccc1O` [THCU, Tetrahydrocurcumin] the “MGX SERCA1a Activity” value ([1]; in the presence of MGX) was “-”, the “PAL SERCA1a Activity” value [1] was “-” and the “Insulin release from non-stimulated cells” value [2] was “significant increase in insulin release”. For the same compound, the “Insulin release from Glu-stimulated cells” value [2] was “significant increase in insulin release”, the “Effect on INS-1E cell viability” value ([3]; 20 µM, 24 h) was “stimulating effect on cell viability” and the “Effect on INS-1E viability in the presence of MGX” value ([3]; 20 µM) was “protective effect”. The “Concentrations protecting against MGX-induced beta cell viability decrease” value [3] was < 20 µM.

For `CCCCC/C=C/C(=O)CCc1ccc(O)c(OC)c1` [SHO, [6]-Shogaol], the “Effect on SERCA1a activity in the presence of PAL” value ([1]; 5–200 μM) was “additional decrease in SERCA1a activity; also recorded: no preventive effect”, the “Effect on SERCA1a activity in the presence of MGX” value ([1]; 5–200 μM) was “further decreased SERCA1a activity; also recorded: no preventive effect” and the “Effect on SERCA1a activity” value ([1]; 5–200 μM) was “does not”. For the same compound, the “Insulin Secretion Non-Stimulated” value [2] was “-” and the “Insulin Secretion Stimulated” value [2] was “-”.

In the case of `Cc1ccc2cccc(NC(=O)c3ccc(OC(C)C)cc3)c2n1` [CDN1163], the “Concentrations required for efficient SERCA activation” value [4] is given as 1 to 10 µM.

From article PMC11593225, “Polyphenolic Compounds Activate SERCA1a and Attenuate Methylglyoxal- and Palmitate-Induced Impairment in Pancreatic INS-1E Beta Cells” (Cells, 2024)
